# Results as given in publication PMC9919513, “A Practical Approach to Bicyclic Carbamoyl Pyridones with Application to the Synthesis of HIV-1 Integrase Strand Transfer Inhibitors” (Molecules, 2023).
# Like-named read-outs stand apart in the source and are kept apart here.
# Columns and labels:
# in vitro = assay type: cell-based; settings: human, HOS cells
# Protocol: (§1) Human embryonic kidney cell culture cell line 293 was acquired from the American Type Culture Collection (ATCC). The human osteosarcoma cell line, HOS, was obtained from Dr. Richard Schwartz (Michigan State University, East Lansing, MI, USA) and grown in Dulbecco’s modified Eagle’s medium (Invitrogen, Carlsbad, CA, USA) supplemented with 5% (v/v) fetal bovine serum, 5% newborn calf serum, and penicillin (50 units/mL) plus streptomycin (50 µg/mL; Quality Biological, Gaithersburg, MD, USA). The transfection vector, pNLNgoMIVR-ΔLUC was made from pNLNgoMIVR-ΔEnv.HSA by removing the HSA reporter gene and replacing it with a luciferase reporter gene between the NotI and XhoI restriction sites. To produce the new IN mutant S230N used in this study, the IN open reading frame was removed from pNLNgoMIVR-ΔENV.LUC by digestion with KpnI and SalI, and the resulting fragment was inserted between the KpnI and SalI sites of pBluescript KS+. Using that construct as the wild-type template, we prepared the following HIV-1 IN mutant S230N using the QuikChange II XL site-directed mutagenesis kit (Agilent Technologies, Santa Clara, CA, USA) protocol. The following sense oligonucleotides were used with matching cognate antisense oligonucleotides (not shown) (Integrated DNA Technologies, Coralville, IA, USA) in the mutagenesis: S230N 5′-[…]-3′. The DNA sequence of the IN mutant S230N construct was verified independently by DNA sequence determination. The mutated IN coding sequences from pBluescript KS+ were then subcloned into pNLNgoMIVR-ΔEnv.LUC (between the KpnI and SalI sites) to produce mutant HIV-1 constructs, which were also checked by DNA sequencing. […]. On the day prior to transfection, 293 cells were plated on 100 mm diameter dishes at a density of 1.5 × 10^6 cells per plate. Next, 293 cells were transfected with 16 µg of pNLNgoMIVR^-ΔLUC and 4 µg of pHCMV-g (obtained from Dr. Jane Burns, University of California, San Diego) using the calcium phosphate method. At approximately 6 h after the calcium phosphate precipitate was added, 293 cells were washed twice with phosphate-buffered saline (PBS) and incubated with fresh media for 48 h. The virus-containing supernatants were then harvested, clarified by low-speed centrifugation, filtrated, and diluted for preparation in antiviral infection assays. On the day prior to the screen, HOS cells were seeded in a 96-well luminescence cell culture plate at a density of 4000 cells in 100 µL per well. On the day of the screen for cellular cytotoxicity determination, cells were treated with compounds from a concentration range of 250 µM to 0.05 µM and then incubated at 37 °C for 48 h. On the day of the screen for antiviral activity infection assays, cells were treated with compounds from a concentration range of 5 µM to 0.0001 µM using 11 serial dilutions and then incubated at 37 °C for 3 h. After compound incorporation and activation in the cell, 100 µL of virus-stock (WT or mutant) diluted to achieve a luciferase signal between 0.2 and 1.5 Relative Luciferase Units (RLUs) was added to each well and further incubated at 37 °C for 48 h. Cellular cytotoxicity was measured by using the ATP Lite Luminescence detection system and monitored by adding 50 µL of cell lysis buffer from the Luminescence ATP detection assay to each well followed by mixing at 700 rpm at room temperature for 5 min using a compact thermomixer. After addition of 50 µL of reconstituted Luminescence ATP detection assay reagent to all wells except for the negative control/background wells, the plates were mixed at 700 rpm at room temperature for 5 min using a compact thermomixer, incubated at room temperature for 20 min to allow time for signal development, and finally, cytotoxicity was determined using the microplate reader. Infectivity was measured by using the Steady-lite plus luminescence reporter gene assay system (PerkinElmer, Waltham, MA, USA). […]
# [1] = system: HIV-1 vectors that carry WT IN; assay: Single-round HIV-1 replication antiviral assay, wild-type IN; assay type: cell-based; settings: for EC50: 48 h; for Ratio of the antiviral potencies after and before hydrogenation (WT): EC50 of saturated 7 over EC50 of unsaturated 6, WT IN
# Protocol: The bicyclic metal chelating carbamoyl pyridone moiety is common to second-generation tricyclic INSTIs (3, 4, and 5, Figure 1). Analogs of the current study are simplified analogs that lack a third ring. […] The halogen substitution pattern of the benzylamide moiety can affect inhibitory potencies of INSTIs. We determined the antiviral potencies of our compounds in single round HIV-1 replication assays using viral constructs with wild-type IN [31]. Cytotoxicities were determined as previously described. […] In general, the potencies of bicyclic analogs 6 having an unsaturated bond at the C4 position were insensitive to differences in N-methyl substituents. […] Analogs 6g and 6h represent simplified analogs of DTG (3) and CAB (5), respectively, in which the third ring (C-ring) is opened and having doble bond in B-ring, but lacking α-methyl stereochemistry.
# as §1, with “h.” for “h. Cellular cytotoxicity was measured by using the ATP Lite Luminescence detection system and monitored by adding 50 µL of cell lysis buffer from the Luminescence ATP detection assay to each well followed by mixing at 700 rpm at room temperature for 5 min using a compact thermomixer. After addition of 50 µL of reconstituted Luminescence ATP detection assay reagent to all wells except for the negative control/background wells, the plates were mixed at 700 rpm at room temperature for 5 min using a compact thermomixer, incubated at room temperature for 20 min to allow time for signal development, and finally, cytotoxicity was determined using the microplate reader. Infectivity was measured by using the Steady-lite plus luminescence reporter gene assay system (PerkinElmer, Waltham, MA, USA).”
# [2] = 48 h, read-out: CC50, cytotoxic concentration resulting in 50% reduction in the level of ATP
# [3] = Human immunodeficiency virus 1, HOS, read-out: EC50, antiviral potency, WT IN, VSV-g-pseudotyped HIV-1 luciferase vector with WT IN, HOS cells, 48 h
Structure (SMILES),CC50 (in vitro; [2]) [nM],"EC50 [1, 3] [nM]",melting point [°C],Ratio of the antiviral potencies after and before hydrogenation (WT) [1],"CC50 (in vitro; running text of b13, read-out: CC50, cytotoxicity) [nM]","EC50 ([1]; read-out: EC50, antiviral potency, WT IN, VSV-g-pseudotyped HIV-1 luciferase vector with WT IN, HOS cells) [nM]"
"COCCCCCCn1ccn2cc(C(=O)NCc3ccc(F)cc3F)c(=O)c(O)c2c1=O [Compound 6f, N-(2,4-Difluorobenzyl)-9-hydroxy-2-(6-methoxyhexyl)-1,8-dioxo-1,8-dihydro-2H-pyrido [1,2-a]pyrazine-7-carboxamide]",> 250000,4.8 ± 0.2,–,–,–,–
"O=C(NCc1c(F)cc(F)cc1F)c1cn2c(c(O)c1=O)C(=O)N1[C@H]3CC[C@H](C3)O[C@@H]1C2 [BIC, Bictegravir, reference compound]",–,~2,–,–,–,–
"C[C@H]1CO[C@@H]2Cn3cc(C(=O)NCc4ccc(F)cc4F)c(=O)c(O)c3C(=O)N12 [CAB, Cabotegravir, reference compound]",–,~2,–,–,–,–
"COCCN1CCn2cc(C(=O)NCc3ccc(F)cc3F)c(=O)c(O)c2C1=O [Compound 7h, N-(2,4-Difluorobenzyl)-9-hydroxy-2-(2-methoxyethyl)-1,8-dioxo-1,3,4,8-tetrahydro-2H-pyrido [1,2-a]pyrazine-7-carboxamide]",–,3.9 ± 0.5,207 to 210,2.1,–,–
"CC(C)CC(C)n1ccn2cc(C(=O)NCc3ccc(F)cc3F)c(=O)c(O)c2c1=O (stereo not shown) [Compound 6i, N-(2,4-Difluorobenzyl)-9-hydroxy-2-(4-methylpentan-2-yl)-1,8-dioxo-1,8-dihydro-2H-pyrido [1,2-a]pyrazine-7-carboxamide]",> 250000,4.2 ± 1,199 to 203,–,–,–
"CC(C)N1CCn2cc(C(=O)NCc3ccc(F)cc3F)c(=O)c(O)c2C1=O [Compound 7b, N-(2,4-Difluorobenzyl)-9-hydroxy-2-isopropyl-1,8-dioxo-1,3,4,8-tetrahydro-2H-pyrido [1,2-a]pyrazine-7-carboxamide]",–,3 ± 0.1,–,0.79,167000,–
"CN1CCn2cc(C(=O)NCc3ccc(F)cc3F)c(=O)c(O)c2C1=O [Compound 7a, N-(2,4-Difluorobenzyl)-9-hydroxy-2-methyl-1,8-dioxo-1,3,4,8-tetrahydro-2H-pyrido [1,2-a]pyrazine-7-carboxamide]",> 250000,4.6 ± 0.7,247 to 252,1.7,–,–
"Cn1ccn2cc(C(=O)NCc3ccc(F)cc3F)c(=O)c(O)c2c1=O [Compound 6a, N-(2,4-Difluorobenzyl)-9-hydroxy-2-methyl-1,8-dioxo-1,8-dihydro-2H-pyrido [1,2-a]pyrazine-7-carboxamide]",–,2.7 ± 0.2,275 to 280,–,–,–
"COCCCCCCN1CCn2cc(C(=O)NCc3ccc(F)cc3F)c(=O)c(O)c2C1=O [Compound 7f, N-(2,4-Difluorobenzyl)-9-hydroxy-2-(6-methoxyhexyl)-1,8-dioxo-1,3,4,8-tetrahydro-2H-pyrido [1,2-a]pyrazine-7-carboxamide]",> 250000,4.6 ± 0.4,228 to 232,0.96,–,–
"COCCCn1ccn2cc(C(=O)NCc3ccc(F)cc3F)c(=O)c(O)c2c1=O [Compound 6g, N-(2,4-Difluorobenzyl)-9-hydroxy-2-(3-methoxypropyl)-1,8-dioxo-1,8-dihydro-2H-pyrido [1,2-a]pyrazine-7-carboxamide]",> 250000,~2,–,–,–,–
"COCCn1ccn2cc(C(=O)NCc3ccc(F)cc3F)c(=O)c(O)c2c1=O [Compound 6h, N-(2,4-Difluorobenzyl)-9-hydroxy-2-(2-methoxyethyl)-1,8-dioxo-1,8-dihydro-2H-pyrido [1,2-a]pyrazine-7-carboxamide]",> 250000,~2,–,–,–,1.9 ± 0.4
"COCCCN1CCn2cc(C(=O)NCc3ccc(F)cc3F)c(=O)c(O)c2C1=O [Compound 7g, N-(2,4-Difluorobenzyl)-9-hydroxy-2-(3-methoxypropyl)-1,8-dioxo-1,3,4,8-tetrahydro-2H-pyrido [1,2-a]pyrazine-7-carboxamide]",> 250000,4 ± 0.7,250 to 252,2.0,–,–
"CC(C)n1ccn2cc(C(=O)NCc3ccc(F)cc3F)c(=O)c(O)c2c1=O [Compound 6b, N-(2,4-Difluorobenzyl)-9-hydroxy-2-isopropyl-1,8-dioxo-1,8-dihydro-2H-pyrido [1,2-a]pyrazine-7-carboxamide]",> 250000,3.8 ± 0.6,–,–,–,–
